In PubChem BioAssay AID1259407 (Chemical Carcinogenesis Research Information System (CCRIS), 2018):
Active and inactive are the calls of the source. How the calls were made is not given here.

Tested on: CCRIS mutagenicity, Ames/micronucleus/aberration tests
Experiment: CCRIS mutagenicity studies
[1] = Test System: AMES SALMONELLA TYPHIMURIUM, Strain/Indicator: TA98, Metabolic Activation: NONE, Method: STANDARD PLATE
[2] = Test System: AMES SALMONELLA TYPHIMURIUM, Strain/Indicator: TA98, Metabolic Activation: RAT, LIVER, S-9, AROCLOR 1254, Method: STANDARD PLATE
[3] = Test System: AMES SALMONELLA TYPHIMURIUM, Strain/Indicator: TA100, Metabolic Activation: NONE, Method: STANDARD PLATE
[4] = Test System: AMES SALMONELLA TYPHIMURIUM, Strain/Indicator: TA100, Metabolic Activation: RAT, LIVER, S-9, AROCLOR 1254, Method: STANDARD PLATE
[5] = Test System: AMES SALMONELLA TYPHIMURIUM, Strain/Indicator: TA98, Metabolic Activation: NONE, Method: PREINCUBATION
[6] = Test System: AMES SALMONELLA TYPHIMURIUM, Strain/Indicator: TA100, Metabolic Activation: NONE, Method: PREINCUBATION

## Nc1cc(Cl)cc(Cl)c1
End Point: In vitro chromosomal aberrations, Test System: Chinese hamster lung (CHL/IU) cells, Metabolic Activation: Rat, Liver, S9, Phenobarbital and 5,6-benzoflavone
  mutagenic call: active; positive (structural changes and ploidy)
[1]
  mutagenic call: inactive; negative
[2]
  mutagenic call: inactive; negative
[3]
  mutagenic call: inactive; negative
[4]
  mutagenic call: inactive; negative
Test System: UDS RODENT HEPATOCYTES, Strain/Indicator: THY INCORP (NON-S-PHASE), Metabolic Activation: NONE, Method: AUTORADIOGRAPHY
  mutagenic call: inactive; negative

## O=[N+]([O-])c1ccc(Nc2ccccc2O)c([N+](=O)[O-])c1
Test System: AMES SALMONELLA TYPHIMURIUM, Strain/Indicator: TA97, Metabolic Activation: HAMSTER, LIVER, S-9, AROCLOR 1254 (10%), Method: PREINCUBATION
  mutagenic call: active; positive
Test System: AMES SALMONELLA TYPHIMURIUM, Strain/Indicator: TA97, Metabolic Activation: NONE, Method: PREINCUBATION
  mutagenic call: active; positive
Test System: AMES SALMONELLA TYPHIMURIUM, Strain/Indicator: TA97, Metabolic Activation: RAT, LIVER, S-9, AROCLOR 1254 (10%), Method: PREINCUBATION
  mutagenic call: active; positive
Test System: AMES SALMONELLA TYPHIMURIUM, Strain/Indicator: TA98, Metabolic Activation: HAMSTER, LIVER, S-9, AROCLOR 1254 (10%), Method: PREINCUBATION
  mutagenic call: active; positive
[5]
  mutagenic call: active; positive
Test System: AMES SALMONELLA TYPHIMURIUM, Strain/Indicator: TA98, Metabolic Activation: RAT, LIVER, S-9, AROCLOR 1254 (10%), Method: PREINCUBATION
  mutagenic call: active; positive
Test System: AMES SALMONELLA TYPHIMURIUM, Strain/Indicator: TA100, Metabolic Activation: HAMSTER, LIVER, S-9, AROCLOR 1254 (10%), Method: PREINCUBATION
  mutagenic call: active; positive
[6]
  mutagenic call: inactive; negative
Test System: AMES SALMONELLA TYPHIMURIUM, Strain/Indicator: TA100, Metabolic Activation: RAT, LIVER, S-9, AROCLOR 1254 (10%), Method: PREINCUBATION
  mutagenic call: active; positive
Test System: AMES SALMONELLA TYPHIMURIUM, Strain/Indicator: TA1535, Metabolic Activation: RAT, LIVER, S-9, AROCLOR 1254 (10%), Method: PREINCUBATION
  mutagenic call: active; positive

## COc1cccc2c1C(=N)c1c(O)c3c(c(O)c1C2=O)C[C@@](O)(C(C)=O)C[C@@H]3O[C@H]1C[C@H](N)[C@H](O)[C@H](C)O1
Test System: CHINESE HAMSTER V-79, Strain/Indicator: V-79 (HGPRT)/6-THIOGUANINE, Metabolic Activation: NONE
  mutagenic call: active; positive

## COP(=S)(OC)Oc1ccc([N+](=O)[O-])c(C)c1
End Point: IN VIVO MICRONUCLEUS, Test System: BONE MARROW POLYCHROMATIC ERYTHROCYTES, Species: MOUSE, Strain/Sex: DDY/MALE, Route: IP
  mutagenic call: inactive; negative
[5]
  mutagenic call: inactive; negative
[1]
  mutagenic call: inactive; negative
Test System: AMES SALMONELLA TYPHIMURIUM, Strain/Indicator: TA98, Metabolic Activation: RAT LIVER S-9 (10%), Method: PREINCUBATION
  mutagenic call: inactive; negative
[2]
  mutagenic call: inactive; negative
Test System: AMES SALMONELLA TYPHIMURIUM, Strain/Indicator: TA98, Metabolic Activation: S-9, NADPH GENERATING SYSTEM, Method: STANDARD PLATE
  mutagenic call: inactive; negative
[6]
  mutagenic call: inactive; negative
[3]
  mutagenic call: inactive; negative
Test System: AMES SALMONELLA TYPHIMURIUM, Strain/Indicator: TA100, Metabolic Activation: RAT LIVER S-9 (10%), Method: PREINCUBATION
  mutagenic call: inactive; negative
[4]
  mutagenic call: inactive; negative
Test System: AMES SALMONELLA TYPHIMURIUM, Strain/Indicator: TA100, Metabolic Activation: S-9 MIX, Method: STANDARD PLATE
  mutagenic call: active; positive
Test System: AMES SALMONELLA TYPHIMURIUM, Strain/Indicator: TA102, Metabolic Activation: NONE, Method: STANDARD PLATE
  mutagenic call: inactive; negative
Test System: AMES SALMONELLA TYPHIMURIUM, Strain/Indicator: TA102, Metabolic Activation: S-9, NADPH GENERATING SYSTEM, Method: STANDARD PLATE
  mutagenic call: inactive; negative
Test System: AMES SALMONELLA TYPHIMURIUM, Strain/Indicator: TA1535, Metabolic Activation: NONE, Method: STANDARD PLATE
  mutagenic call: inactive; negative
Test System: AMES SALMONELLA TYPHIMURIUM, Strain/Indicator: TA1535, Metabolic Activation: S-9, NADPH GENERATING SYSTEM, Method: STANDARD PLATE
  mutagenic call: inactive; negative
Test System: AMES SALMONELLA TYPHIMURIUM, Strain/Indicator: TA1537, Metabolic Activation: NONE, Method: STANDARD PLATE
  mutagenic call: inactive; negative
Test System: AMES SALMONELLA TYPHIMURIUM, Strain/Indicator: TA1537, Metabolic Activation: S-9, NADPH GENERATING SYSTEM, Method: STANDARD PLATE
  mutagenic call: inactive; negative
Test System: AMES SALMONELLA TYPHIMURIUM, Strain/Indicator: YG1021, Metabolic Activation: NONE, Method: PREINCUBATION
  mutagenic call: inactive; negative
Test System: AMES SALMONELLA TYPHIMURIUM, Strain/Indicator: YG1021, Metabolic Activation: RAT LIVER S-9 (10%), Method: PREINCUBATION
  mutagenic call: inactive; negative
Test System: AMES SALMONELLA TYPHIMURIUM, Strain/Indicator: YG1024, Metabolic Activation: NONE, Method: PREINCUBATION
  mutagenic call: inactive; negative
Test System: AMES SALMONELLA TYPHIMURIUM, Strain/Indicator: YG1024, Metabolic Activation: RAT LIVER S-9 (10%), Method: PREINCUBATION
  mutagenic call: inactive; negative
Test System: AMES SALMONELLA TYPHIMURIUM, Strain/Indicator: YG1026, Metabolic Activation: NONE, Method: PREINCUBATION
  mutagenic call: active; positive
Test System: AMES SALMONELLA TYPHIMURIUM, Strain/Indicator: YG1026, Metabolic Activation: RAT LIVER S-9 (10%), Method: PREINCUBATION
  mutagenic call: active; positive
Test System: AMES SALMONELLA TYPHIMURIUM, Strain/Indicator: YG1029, Metabolic Activation: NONE, Method: PREINCUBATION
  mutagenic call: active; positive
Test System: AMES SALMONELLA TYPHIMURIUM, Strain/Indicator: YG1029, Metabolic Activation: RAT LIVER S-9 (10%), Method: PREINCUBATION
  mutagenic call: active; positive
Test System: AMES SALMONELLA TYPHIMURIUM, Strain/Indicator: YG1041, Metabolic Activation: NONE, Method: PREINCUBATION
  mutagenic call: active; positive
Test System: AMES SALMONELLA TYPHIMURIUM, Strain/Indicator: YG1041, Metabolic Activation: RAT LIVER S-9 (10%), Method: PREINCUBATION
  mutagenic call: active; positive
Test System: AMES SALMONELLA TYPHIMURIUM, Strain/Indicator: YG1042, Metabolic Activation: NONE, Method: PREINCUBATION
  mutagenic call: active; positive
Test System: AMES SALMONELLA TYPHIMURIUM, Strain/Indicator: YG1042, Metabolic Activation: RAT LIVER S-9 (10%), Method: PREINCUBATION
  mutagenic call: active; positive
